Assay results published in patent US6713043B2 (priority 1996, dated 2004).
≈ marks a conversion by molar mass, not a printed value. Entries after “also recorded” stand apart in the source; their conditions may differ.

How the values were obtained:
P. aeruginosa = type: cell-based, Psuedomonas aeruginosa
L. pneumophila [1] = type: cell-based, Legionella pneumophila
L. pneumophila [2] = type: cell-based, Legionella pneumophila; remark: listed apart in the source
L. pneumophila [3] = experiment: microbe, parasite or virus in culture; type: cell-based, Legionella pneumophila; conditions: for MIC: Legionella pneumophila, 48 h, read-out: MIC (minimum concentration at which no growth occurred)
[4] = tested on: L. pneumophila in mouse J774 macrophages; type: cell-based, Legionella pneumophila
L. pneumophila [5] = type: cell-based, Legionella pneumophila; remark: listed apart in the source
F4b [6] = type: cell-based, Legionella pneumophila
[7] = in vivo; cited from earlier work
F4b in HL-60 cells = type: cell-based, Legionella pneumophila
HL-60 cells = conditions: human
[8] = tested on: L. pneumophila in HL-60 cells; type: cell-based, Legionella pneumophila
[9] = tested on: L. pneumophila in human monocytes; type: cell-based, Legionella pneumophila
F4b in human macrophages = type: cell-based, Legionella pneumophila
F4b [10] = type: cell-based, Legionella pneumophila; remark: listed apart in the source
[11] = tested on: L. pneumophila in human macrophages; type: cell-based, Legionella pneumophila
[12] = tested on: L. pneumophila infected HL-60 cells; type: cell-based, human
wild type L. pneumophila = type: cell-based, Legionella pneumophila
F4b [13] = type: cell-based, Legionella pneumophila; remark: listed apart in the source

**Q.** Which results are given for `Cc1ccc(C)c(OCCCC(C)(C)C(=O)O)c1` [GFZ, Gemfibrozil]?
**A.** susceptibility to GFZ (P. aeruginosa): not susceptible; GFZ concentration at which no growth was seen on the CYE plates (L. pneumophila [1]): 400 µg/mL; bacteriocidal or bacteriostatic (L. pneumophila [1]): bacteriostatic; inclusion accumulation (EM) (L. pneumophila [2]): accumulated granules; growth in AYE broth in presence of GFZ (L. pneumophila [3]): inhibited L. pneumophila growth; MIC (L. pneumophila [3]): 10 µg/mL (≈ 39.9 µM); inhibition of intracellular growth (CFU) [4]: one log; also recorded: partially inhibited; effect on fatty acid profile (L. pneumophila [5]): decreased peak areas for several typical L. pneumophila fatty acids; inclusion accumulation (EM) (F4b [6]): no apparent difference in the number or size of inclusions; concentration of gemfibrozil used in humans treated for hyperlipidemia [7]: 15000 to 30000 ng/mL; inhibition of intracellular growth (CFU) (F4b in HL-60 cells): one log; effect on HL-60 cell viability (HL-60 cells): did not affect HL-60 cell viability; inhibition of intracellular growth (CFU) [8]: partially inhibited; also recorded: three logs; inhibition of intracellular growth (CFU) [9]: one log; also recorded: partially inhibited; inhibition of intracellular growth (CFU) (F4b in human macrophages): one log; effect on fatty acid profile (F4b [10]): did not affect the fatty acid profile; inhibition of intracellular growth (CFU) [11]: partially inhibited; viability of L. pneumophila infected HL-60 cells (MTT reduction) [12]: increased viability

**Q.** Which MIC (L. pneumophila [3]) does the source give for `CCCN(CCC)S(=O)(=O)c1ccc(C(=O)O)cc1` [Probenecid, probenecid] here?
**A.** 160 µg/mL (≈ 561 µM)

**Q.** For `CC(C)(Oc1ccc(Cl)cc1)C(=O)O` [clofibric acid], which MIC (L. pneumophila [3]) is on record?
**A.** 125 µg/mL (≈ 582 µM)

**Q.** With `CCc1cc(C(N)=S)ccn1` [ethionamide] as the molecule, how does the “sensitivity of wild type L. pneumophila relative to F4b (zone of inhibition)” value (wild type L. pneumophila) read?
**A.** twice as sensitive

**Q.** With `NNC(=O)c1ccncc1` [isoniazid] as the molecule, how does the “sensitivity (zone of inhibition)” value (wild type L. pneumophila) read?
**A.** no sensitivity

**Q.** And the “sensitivity (zone of inhibition)” value (F4b [13])?
**A.** sensitive
